Consider 21 compounds from ChEMBL document CHEMBL1909046, “DrugMatrix in vitro pharmacology data”.

For one data set, the target named is T1, Caspase-1 (Homo sapiens, UniProt P29466).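 Note: Caspase-1 enzyme inhibition assay with a peptide substrate.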
T1 sequence (P29466 whole entry): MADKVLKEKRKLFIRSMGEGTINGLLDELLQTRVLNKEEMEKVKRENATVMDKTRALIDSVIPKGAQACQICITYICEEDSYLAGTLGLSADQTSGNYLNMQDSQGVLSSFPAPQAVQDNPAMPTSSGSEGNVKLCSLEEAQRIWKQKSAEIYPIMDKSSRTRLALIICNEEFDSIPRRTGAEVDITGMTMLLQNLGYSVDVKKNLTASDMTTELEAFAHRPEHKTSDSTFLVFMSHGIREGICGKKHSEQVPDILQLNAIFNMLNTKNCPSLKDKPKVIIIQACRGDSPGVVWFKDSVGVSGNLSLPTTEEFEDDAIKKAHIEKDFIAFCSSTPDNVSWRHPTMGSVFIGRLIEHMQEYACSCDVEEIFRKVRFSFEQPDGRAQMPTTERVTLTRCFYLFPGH
Set-up: species or system Escherichia coli.

Another data set addresses T2, Thromboxane-A synthase (Homo sapiens, UniProt P24557).
T2 sequence (P24557 whole entry): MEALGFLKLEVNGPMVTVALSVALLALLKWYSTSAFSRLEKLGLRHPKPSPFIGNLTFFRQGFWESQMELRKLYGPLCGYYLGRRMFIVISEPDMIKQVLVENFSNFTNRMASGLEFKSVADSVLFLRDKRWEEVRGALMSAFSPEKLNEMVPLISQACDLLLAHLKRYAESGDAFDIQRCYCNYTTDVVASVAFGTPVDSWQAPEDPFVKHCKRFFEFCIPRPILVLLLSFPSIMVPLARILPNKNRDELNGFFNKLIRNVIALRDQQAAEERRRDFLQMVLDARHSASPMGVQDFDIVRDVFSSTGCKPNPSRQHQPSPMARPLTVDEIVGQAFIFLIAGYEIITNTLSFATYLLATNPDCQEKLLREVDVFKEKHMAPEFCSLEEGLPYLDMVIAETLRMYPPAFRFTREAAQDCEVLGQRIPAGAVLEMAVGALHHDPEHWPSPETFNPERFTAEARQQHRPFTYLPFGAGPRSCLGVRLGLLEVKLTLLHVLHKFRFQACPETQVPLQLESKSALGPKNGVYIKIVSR
In words: biochemical. The data set is classed as tissue-based, Platelet.

The target of a further data set is T3, Adenosine receptor A3 (Homo sapiens, UniProt P0DMS8).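 Note: radioligand binding assay with AB-MECA serving as the labeled ligand.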
T3 sequence (P0DMS8 whole entry): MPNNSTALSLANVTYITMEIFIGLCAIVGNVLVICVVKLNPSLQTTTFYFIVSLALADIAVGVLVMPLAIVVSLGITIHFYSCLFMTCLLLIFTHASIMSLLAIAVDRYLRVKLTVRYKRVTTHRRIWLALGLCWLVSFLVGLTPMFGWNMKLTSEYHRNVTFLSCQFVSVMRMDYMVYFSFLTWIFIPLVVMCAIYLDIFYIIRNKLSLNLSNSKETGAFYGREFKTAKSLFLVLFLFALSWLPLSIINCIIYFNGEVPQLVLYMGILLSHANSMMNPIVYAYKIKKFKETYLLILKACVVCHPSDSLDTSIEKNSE
The data set is classed as cell membranes, CHO-K1, Membrane.

The target in data set [1] is T4, C-X-C chemokine receptor type 1 (Homo sapiens, UniProt P25024).
T4 sequence (P25024 whole entry): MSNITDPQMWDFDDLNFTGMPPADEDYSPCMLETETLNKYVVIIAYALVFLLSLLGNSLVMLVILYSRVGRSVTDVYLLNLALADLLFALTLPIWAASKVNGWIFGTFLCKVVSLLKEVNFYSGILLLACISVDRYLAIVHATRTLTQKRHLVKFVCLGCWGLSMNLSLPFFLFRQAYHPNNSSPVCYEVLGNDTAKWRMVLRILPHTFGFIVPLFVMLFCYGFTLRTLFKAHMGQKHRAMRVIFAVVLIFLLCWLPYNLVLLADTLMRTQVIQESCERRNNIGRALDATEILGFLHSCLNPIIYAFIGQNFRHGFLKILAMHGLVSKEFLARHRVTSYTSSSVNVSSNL

Another data set concerns the target Cytochrome P450 2E1 (Homo sapiens, UniProt P05181). As to conditions: bti-tn-5b1-4.
Another data set concerns the target Melanocortin receptor 5 (Homo sapiens, UniProt P33032). The format is cell membranes, HEK293, Membrane.
Note: in other assays of this panel Not Active means under 50% inhibition at 10 µM.

Melanocortin receptor 5, sequence (P33032 whole entry): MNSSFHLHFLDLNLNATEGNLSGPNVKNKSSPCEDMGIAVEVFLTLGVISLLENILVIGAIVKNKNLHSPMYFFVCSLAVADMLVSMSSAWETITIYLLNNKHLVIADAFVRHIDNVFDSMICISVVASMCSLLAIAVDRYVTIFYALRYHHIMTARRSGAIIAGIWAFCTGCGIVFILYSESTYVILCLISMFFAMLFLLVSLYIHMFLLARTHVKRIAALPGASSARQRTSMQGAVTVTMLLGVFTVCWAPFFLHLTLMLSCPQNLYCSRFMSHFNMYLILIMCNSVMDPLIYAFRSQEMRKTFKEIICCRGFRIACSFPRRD
Cytochrome P450 2E1, sequence (P05181 whole entry): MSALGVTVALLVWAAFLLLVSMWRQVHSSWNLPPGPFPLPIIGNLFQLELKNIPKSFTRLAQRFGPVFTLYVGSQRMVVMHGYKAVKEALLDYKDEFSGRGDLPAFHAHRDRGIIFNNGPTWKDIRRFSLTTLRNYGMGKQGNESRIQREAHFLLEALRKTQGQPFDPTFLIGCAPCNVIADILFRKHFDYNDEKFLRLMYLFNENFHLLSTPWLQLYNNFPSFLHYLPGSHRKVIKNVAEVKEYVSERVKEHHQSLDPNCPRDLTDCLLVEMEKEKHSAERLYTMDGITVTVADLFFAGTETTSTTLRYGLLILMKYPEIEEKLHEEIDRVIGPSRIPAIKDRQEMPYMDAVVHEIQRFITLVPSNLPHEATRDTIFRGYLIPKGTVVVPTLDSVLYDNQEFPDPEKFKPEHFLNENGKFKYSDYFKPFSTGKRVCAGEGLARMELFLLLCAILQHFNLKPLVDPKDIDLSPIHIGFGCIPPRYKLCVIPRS

Consider `CCCCC(=O)N(Cc1ccc(-c2ccccc2-c2nnn[nH]2)cc1)[C@H](C(=O)O)C(C)C`, for which the IC50 entry (against Caspase-1; on Thromboxane-A synthase (platelet); on Adenosine receptor A3 (cho-k1); in data set [1]; on Cytochrome P450 2E1; at Melanocortin receptor 5 (hek293)) was “Not Active” each time. Besides, on Cytochrome P450 2E1, the Ki (in general, the dissociation constant of the complex between target and ligand, obtained from inhibition or displacement) is on record as “Not Active”.
As to `O=C(O)COc1ccc(C(=O)c2cccs2)c(Cl)c1Cl`, the IC50 entry (on Caspase-1; against Thromboxane-A synthase (platelet); on Adenosine receptor A3 (cho-k1); in data set [1]; on Cytochrome P450 2E1; against Melanocortin receptor 5 (hek293)) was “Not Active” each time. Also, the Ki result at Cytochrome P450 2E1 was “Not Active”.
With `CN1[C@@H]2CC[C@H]1C[C@@H](OC(c1ccccc1)c1ccccc1)C2` [BENZTROPINE], the IC50 entry (against Caspase-1; at Thromboxane-A synthase (platelet); against Adenosine receptor A3 (cho-k1); in data set [1]; against Cytochrome P450 2E1; at Melanocortin receptor 5 (hek293)) was “Not Active” in each case. On Cytochrome P450 2E1, the Ki entry is given as “Not Active”.
`C[C@@](Cc1ccc(O)c(O)c1)(NN)C(=O)O.O` [CARBIDOPA]: the IC50 entry (against Caspase-1; against Thromboxane-A synthase (platelet); at Adenosine receptor A3 (cho-k1); in data set [1]; against Cytochrome P450 2E1; on Melanocortin receptor 5 (hek293)) was “Not Active” each time. Also, the Ki entry on Cytochrome P450 2E1 is given as “Not Active”.
Regarding `CN1CCN(C2=Nc3cc(Cl)ccc3Nc3ccccc32)CC1` [CLOZAPINE], the IC50 result (against Caspase-1; against Thromboxane-A synthase (platelet); on Adenosine receptor A3 (cho-k1); in data set [1]; at Cytochrome P450 2E1; at Melanocortin receptor 5 (hek293)) was “Not Active” each time. For the same compound, the Ki entry on Cytochrome P450 2E1 is recorded as “Not Active”.
For `CC(C)NC[C@@H](O)COc1cccc2ccccc12` [DEXPROPRANOLOL], the IC50 result (on Caspase-1; against Thromboxane-A synthase (platelet); on Adenosine receptor A3 (cho-k1); in data set [1]; against Cytochrome P450 2E1; against Melanocortin receptor 5 (hek293)) was “Not Active” in each case. For the same compound, the Ki result at Cytochrome P450 2E1 was “Not Active”.
As for `CC(C)NC[C@H](O)COc1cccc2ccccc12` [LEVOPROPRANOLOL], the IC50 entry (on Caspase-1; against Thromboxane-A synthase (platelet); against Adenosine receptor A3 (cho-k1); in data set [1]; at Cytochrome P450 2E1; at Melanocortin receptor 5 (hek293)) was “Not Active” throughout. Further, the Ki entry on Cytochrome P450 2E1 is “Not Active”.
Turning to `O=C(O)CCCCC1CCSS1` (stereo not drawn) [LIPOIC ACID, ALPHA], the IC50 result (against Caspase-1; against Thromboxane-A synthase (platelet); against Adenosine receptor A3 (cho-k1); in data set [1]; at Cytochrome P450 2E1; against Melanocortin receptor 5 (hek293)) was “Not Active” throughout. The Ki result on Cytochrome P450 2E1 is “Not Active”.
Regarding `CN(C)C(=O)C(CCN1CCC(O)(c2ccc(Cl)cc2)CC1)(c1ccccc1)c1ccccc1` [LOPERAMIDE], the IC50 result (against Caspase-1; at Thromboxane-A synthase (platelet); against Adenosine receptor A3 (cho-k1); in data set [1]; at Cytochrome P450 2E1; against Melanocortin receptor 5 (hek293)) was “Not Active” each time. Besides, the Ki entry at Cytochrome P450 2E1 was “Not Active”.
As to `Clc1ccc(COC(Cn2ccnc2)c2ccc(Cl)cc2Cl)c(Cl)c1` (stereo not drawn) [MICONAZOLE], the concentration for half-maximal inhibition (IC50) – broadly, the midpoint of a concentration-inhibition curve – against Caspase-1 is “Not Active”; at Thromboxane-A synthase (read-out: IC50), 0.263 µM; in data set [1], “Not Active”; against Cytochrome P450 2E1 it was “Not Active”; on Melanocortin receptor 5 (read-out: IC50) it was 22.6 µM. In addition, the inhibition constant Ki result is “Not Active” at Cytochrome P450 2E1 and 21.2 µM at Melanocortin receptor 5 (read-out: Ki).
For the compound `Oc1ccc2c3c1O[C@H]1[C@@H](O)CC[C@@]4(O)[C@@H](C2)N(CC2CCC2)CC[C@]314` [NALBUPHINE], the concentration for half-maximal inhibition (IC50) result (against Caspase-1; at Thromboxane-A synthase (platelet); on Adenosine receptor A3 (cho-k1); in data set [1]; at Melanocortin receptor 5 (hek293)) was “Not Active” in each case.
For the compound `C[C@]12C=CC(=O)C=C1CC[C@@H]1[C@@H]2C(=O)C[C@@]2(C)[C@H]1CC[C@]2(O)C(=O)CO` [PREDNISONE], the IC50 result (against Caspase-1; at Thromboxane-A synthase (platelet); against Adenosine receptor A3 (cho-k1); in data set [1]; against Melanocortin receptor 5 (hek293)) was “Not Active” throughout.
`OCCOCCN1CCN(C2=Nc3ccccc3Sc3ccccc32)CC1` [QUETIAPINE]: the IC50 result (on Caspase-1; at Thromboxane-A synthase (platelet); against Adenosine receptor A3 (cho-k1); in data set [1]; at Cytochrome P450 2E1; against Melanocortin receptor 5 (hek293)) was “Not Active” each time. In addition, the Ki result at Cytochrome P450 2E1 is on record as “Not Active”.
In the case of `COC(=O)[C@H]1[C@H]2C[C@@H]3c4[nH]c5cc(OC)ccc5c4CCN3C[C@H]2C[C@@H](OC(=O)c2cc(OC)c(OC)c(OC)c2)[C@@H]1OC` [RESERPINE], the IC50 entry (against Caspase-1; at Thromboxane-A synthase (platelet); on Adenosine receptor A3 (cho-k1); in data set [1]; against Cytochrome P450 2E1; at Melanocortin receptor 5 (hek293)) was “Not Active” throughout. Moreover, the Ki entry at Cytochrome P450 2E1 is recorded as “Not Active”.
For the compound `O=C(O)c1ccccc1O` [SALICYLIC ACID], the IC50 result (against Caspase-1; against Thromboxane-A synthase (platelet); on Adenosine receptor A3 (cho-k1); in data set [1]; at Cytochrome P450 2E1; at Melanocortin receptor 5 (hek293)) was “Not Active” each time. Also, the Ki entry at Cytochrome P450 2E1 was “Not Active”.
Consider `C[S+]([O-])c1ccc(-c2nc(-c3ccncc3)c(-c3ccc(F)cc3)[nH]2)cc1` (stereo not drawn) [SB-203580], for which the IC50 entry (against Caspase-1; at Adenosine receptor A3 (cho-k1); in data set [1]; against Cytochrome P450 2E1; against Melanocortin receptor 5 (hek293)) was “Not Active” each time. On Cytochrome P450 2E1, the Ki result is “Not Active”.
Regarding `CC1CCC(NC(=O)N(CCCl)N=O)CC1` (stereo not drawn) [SEMUSTINE], the IC50 entry (against Caspase-1; against Thromboxane-A synthase (platelet); at Adenosine receptor A3 (cho-k1); in data set [1]; against Cytochrome P450 2E1; on Melanocortin receptor 5 (hek293)) was “Not Active” each time. For the same compound, the Ki entry at Cytochrome P450 2E1 is “Not Active”.
Consider `O=C1C[C@@H]2OCC=C3CN4CC[C@]56c7ccccc7N1[C@H]5[C@H]2[C@H]3C[C@H]46` [STRYCHNINE], for which the IC50 entry (against Caspase-1; against Thromboxane-A synthase (platelet); on Adenosine receptor A3 (cho-k1); in data set [1]; against Cytochrome P450 2E1; at Melanocortin receptor 5 (hek293)) was “Not Active” throughout. Also, the Ki entry on Cytochrome P450 2E1 is listed as “Not Active”.
Turning to `C[N+](C)(C)CCOC(=O)CCC(=O)OCC[N+](C)(C)C.[Cl-].[Cl-]` [SUCCINYLCHOLINE CHLORIDE], the IC50 result (at Caspase-1; against Thromboxane-A synthase (platelet); against Adenosine receptor A3 (cho-k1); in data set [1]; on Cytochrome P450 2E1; at Melanocortin receptor 5 (hek293)) was “Not Active” in each case. At Cytochrome P450 2E1, the Ki result is recorded as “Not Active”.
Take `Nc1ccc(S(=O)(=O)NC(=O)c2ccccc2)cc1` [SULFABENZAMIDE]: the IC50 entry (against Caspase-1; against Thromboxane-A synthase (platelet); against Adenosine receptor A3 (cho-k1); in data set [1]; against Cytochrome P450 2E1; at Melanocortin receptor 5 (hek293)) was “Not Active” throughout. For the same compound, the Ki result on Cytochrome P450 2E1 is given as “Not Active”.
`CCCCCCCCNC(C)C(O)c1ccc(SC(C)C)cc1` (stereo not drawn) [SULOCTIDIL]: the IC50 entry against Caspase-1 is “Not Active”; against Thromboxane-A synthase (platelet) it was “Not Active”; at Adenosine receptor A3 (read-out: IC50), 3.71 µM; in data set [1], “Not Active”; against Cytochrome P450 2E1, “Not Active”; against Melanocortin receptor 5 (hek293), “Not Active”. Moreover, the Ki at Adenosine receptor A3 (read-out: Ki) was 2.09 µM; at Cytochrome P450 2E1, “Not Active”.
